Experimental data reported in patent publication US20240294545A1 (CSPC Zhongqi Pharmaceutical Technology (Shijiazhuang) Co., …, priority 2020, published 2024).
Marks after values point to notes of the source that are not given here.

System: subcutaneous xenograft tumor of human colon cancer cell line HT-29
Experiment: HT-29 subcutaneous xenograft, combined with irinotecan liposome injection
Type: in vivo, NU/NU mice
Conditions: compound 25 mg/kg intragastric + irinotecan liposome 10 mg/kg ip
Method: 7 Efficacy Test of the Compounds of the Present Disclosure Combined with Irinotecan Liposome Injection on Inhibiting the Growth of Subcutaneous Xenograft Tumor of Human Colon Cancer Cell Line HT-29
7.1 Experimental Animals: NU/NU Mice, SPF, Female, 20 to 30 g.
Irinotecan liposome injection (HE072), 43 mg: 10 mL, milky white liquid, batch No. B37191202, provided by Preparation Research Institute 2 from CSPC Zhongqi Pharmaceutical Technology (Shijiazhuang) Co., Ltd., diluted to an appropriate concentration with 5% glucose injection while testing.
HT-29 cell, provided by Nanjing Kebai Biotechnology Co., Ltd.; 5A culture medium:fetal bovine serum=90%:10%, 37° C., 5% CO2.
NU/NU nude mice were subcutaneously inoculated with HT-29 human colon cancer cells. When the mean tumor volume reached about 170 mm^3 (9 days after inoculation), the animals were evenly divided into groups according to the tumor volume (d0), with 6 mice in each group. 10 mg/kg of HE072 was administered intraperitoneally once a week for 1 time. Vehicle control, 25 mg/kg of A-6, 25 mg/kg of A-46, and 25 mg/kg of AZD1390 were administered intragastrically once a day, from Monday to Thursday every week except Friday to Sunday, for 1 week (4 times). The tumor volume was measured twice a week, the body weight of mouse was weighed every day, and the data were recorded. The tumor volume (TV) was calculated according to the formula: TV=½×a×b2, wherein a and b represent the long and short diameters of tumor, respectively. Tumor growth inhibitory rate TGI (%)=[1−(Ti−T0)/(Vi−V0)]×100, wherein Ti represents the mean tumor volume of a given treatment group on a certain day; TO represents the mean tumor volume of this treatment group at the beginning of administration; Vi represents the mean tumor volume of the vehicle control group on a certain day (the same day as that in Ti); V0 represents the mean tumor volume of the vehicle control group at the beginning of administration. At the end of the test (d17), the animals were sacrificed, the tumors were stripped and weighed, and the tumor weight inhibitory rates were calculated.

CC(C)n1c(=O)n(C)c2cnc3cc(F)c(-c4ccc(OCCCN5CCCCC5)nc4)cc3c21 [AZD1390, reference compound]
D 16 TGI (day 16): 89.6% | D 16 TV (MEAN ± SD) (day 16): 244.2 ± 192.8***^### mm^3 | Tumor weight (end of test): 0.18 ± 0.18 g | Tumor weight inhibitory rate (end of test): 74.7%
